From US12291519B2, “2-hydroxycycloalkane-1-carbamoyl” (Idorsia Pharmaceuticals Ltd, priority 2019, dated 2025) come the findings set out here.

Assay [1] concerns the target human Gal-1 (hGal-1). Put plainly: Competitive binding assay: biotinylated hGal-1 binding to microplate-adsorbed asialofetuin (ASF). The settings on record: Activity on hGal-1; binding of biotinylated hGal-1 to ASF-coated plates; mean values. In a few lines:
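Biotinylated hGal-1 (300–1000 ng/mL; optionally a cysteine-free all-serine variant) incubated 3 h at 4 °C with compound on asialofetuin-coated plates, then streptavidin-peroxidase 1 h at 4 °C. ABTS readout at OD 410 nm after 30–45 min; IC50 given as mean of several runs.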

For assay [2], the target named is human Gal-3 (hGal-3) (Homo sapiens (Human), UniProt P17931). The assay is described as follows: Competitive binding assay: biotinylated hGal-3 binding to microplate-adsorbed asialofetuin (ASF). The settings on record: Activity on hGal-3; binding of biotinylated hGal-3 to ASF-coated plates; mean values. A digest of the protocol:
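Serially diluted compounds competed with biotinylated human Gal-3 for binding to plate-adsorbed asialofetuin over 3 h at 4 °C. Bound Gal-3 was detected with streptavidin-peroxidase (80 ng/mL, 1 h, 4 °C) and ABTS substrate. IC50 values are means of several measurements.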

pIC50: −log10 of the molar value.

Chain of human Gal-3 (hGal-3) (P17931 whole entry): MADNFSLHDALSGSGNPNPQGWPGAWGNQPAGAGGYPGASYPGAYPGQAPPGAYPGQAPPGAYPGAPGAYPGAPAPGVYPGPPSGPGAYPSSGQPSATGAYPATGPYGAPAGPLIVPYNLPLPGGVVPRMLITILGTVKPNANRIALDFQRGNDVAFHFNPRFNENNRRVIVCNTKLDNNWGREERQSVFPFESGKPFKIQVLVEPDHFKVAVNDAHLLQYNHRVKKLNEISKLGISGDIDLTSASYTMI
Chain of human Gal-1 (hGal-1) (P09382 2-135 limits assumed): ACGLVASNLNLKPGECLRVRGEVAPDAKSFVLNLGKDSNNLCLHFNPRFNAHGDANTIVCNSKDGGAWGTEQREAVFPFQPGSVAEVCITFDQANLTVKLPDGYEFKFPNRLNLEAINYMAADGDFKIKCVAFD

What is called pIC50 is the IC50 on a negative log10 scale, so that one unit is a factor of ten. Higher therefore signals a low IC50. As to `O=C(CO[C@@H]1[C@@H](n2cc(-c3cc(F)c(F)c(F)c3)nn2)[C@@H](O)[C@@H](CO)O[C@H]1C(=O)N(c1cc(Cl)cc(Cl)c1)[C@H]1CCCC[C@@H]1O)N1CCC(O)CC1` [Example 127, (2R,3R,4S,5R,6R)—N-(3,5-dichlorophenyl)-5-hydroxy-N-((1S,2S)-2-hydroxycyclohexyl)-6-(hydroxymethyl)-3-(2-(4-hydroxypiperidin-1-yl)-2-oxoethoxy)-4-(4-(3,4,5-trifluorophenyl)-1H-1,2,3-triazol-1-yl)tetrahydro-2H-pyran-2-carboxamide], the results for the pIC50 in assay [1] and in assay [2] were 6.74 and 7.92, respectively.

Take `O=C(CO[C@@H]1[C@@H](n2cc(-c3cc(F)c(F)c(F)c3)nn2)[C@@H](O)[C@@H](CO)O[C@H]1C(=O)N(c1cc(Cl)cc(Cl)c1)[C@H]1CCCC[C@@H]1O)N1CC(O)C1` [Example 128]: the pIC50 in assay [1] is 6.75; in assay [2] it was 7.89.

As to `CO[C@@H]1[C@@H](n2cc(-c3cc(F)c(F)c(Cl)c3)nn2)[C@@H](O)[C@@H](CO)O[C@H]1C(=O)N(c1cc(Cl)cc(Cl)c1)[C@H]1CCCC[C@@H]1O` [Example 129, (2R,3R,4S,5R,6R)-4-(4-(3-chloro-4,5-difluorophenyl)-1H-1,2,3-triazol-1-yl)-N-(3,5-dichlorophenyl)-5-hydroxy-N-((1S,2S)-2-hydroxycyclohexyl)-6-(hydroxymethyl)-3-methoxytetrahydro-2H-pyran-2-carboxamide], the pIC50 in assay [1] is 6.85; in assay [2], 7.49.

On to `CO[C@@H]1[C@@H](n2cc(-c3cc(F)c(F)c(Cl)c3)nn2)[C@@H](O)[C@@H](CO)O[C@H]1C(=O)N(c1ccc(F)c(F)c1)[C@H]1CCCC[C@@H]1O` [Example 130, (2R,3R,4S,5R,6R)-4-(4-(3-chloro-4,5-difluorophenyl)-1H-1,2,3-triazol-1-yl)-N-(3,4-difluorophenyl)-5-hydroxy-N-((1S,2S)-2-hydroxycyclohexyl)-6-(hydroxymethyl)-3-methoxytetrahydro-2H-pyran-2-carboxamide], for which the values for the pIC50 in assay [1] and in assay [2] were 6.03 and 7.28, respectively.

In the case of `CO[C@@H]1[C@@H](n2cc(-c3cc(F)c(F)c(Cl)c3)nn2)[C@@H](O)[C@@H](CO)O[C@H]1C(=O)N(c1ccc2ncsc2c1)[C@H]1CCCC[C@@H]1O` [Example 131, (2R,3R,4S,5R,6R)-N-(benzo[d]thiazol-6-yl)-4-(4-(3-chloro-4,5-difluorophenyl)-1H-1,2,3-triazol-1-yl)-5-hydroxy-N-((1S,2S)-2-hydroxycyclohexyl)-6-(hydroxymethyl)-3-methoxytetrahydro-2H-pyran-2-carboxamide], the results for the negative-log IC50 (pIC50) in assay [1] and in assay [2] were 6.65 and 7.47, respectively.

Regarding `CO[C@@H]1[C@@H](n2cc(-c3cc(F)c(F)c(Cl)c3)nn2)[C@@H](O)[C@@H](CO)O[C@H]1C(=O)N(c1cc(Cl)cc(C#N)c1)[C@H]1CCCC[C@@H]1O` [Example 132, (2R,3R,4S,5R,6R)-4-(4-(3-chloro-4,5-difluorophenyl)-1H-1,2,3-triazol-1-yl)-N-(3-chloro-5-cyanophenyl)-5-hydroxy-N-((1S,2S)-2-hydroxycyclohexyl)-6-(hydroxymethyl)-3-methoxytetrahydro-2H-pyran-2-carboxamide], the pIC50 in assay [1] was 6.85; in assay [2] it was 7.89.

`CO[C@@H]1[C@@H](n2cc(-c3cc(F)cc(Cl)c3)nn2)[C@@H](O)[C@@H](CO)O[C@H]1C(=O)N(c1ccc(F)c(F)c1)[C@H]1CCCC[C@@H]1O` [Example 134, (2R,3R,4S,5R,6R)-4-(4-(3-chloro-5-fluorophenyl)-1H-1,2,3-triazol-1-yl)-N-(3,4-difluorophenyl)-5-hydroxy-N-((1S,2S)-2-hydroxycyclohexyl)-6-(hydroxymethyl)-3-methoxytetrahydro-2H-pyran-2-carboxamide]: the pIC50 in assay [1] is 6.12; in assay [2] it was 7.20.

With `CO[C@@H]1[C@@H](n2cc(-c3cc(F)cc(Cl)c3)nn2)[C@@H](O)[C@@H](CO)O[C@H]1C(=O)N(c1cc(F)cc(C#N)c1)[C@H]1CCCC[C@@H]1O` [Example 135, (2R,3R,4S,5R,6R)-4-(4-(3-chloro-5-fluorophenyl)-1H-1,2,3-triazol-1-yl)-N-(3-cyano-5-fluorophenyl)-5-hydroxy-N-((1S,2S)-2-hydroxycyclohexyl)-6-(hydroxymethyl)-3-methoxytetrahydro-2H-pyran-2-carboxamide], the figures for the negative-log IC50 (pIC50) in assay [1] and in assay [2] were 6.57 and 7.28, respectively.

With `CO[C@@H]1[C@@H](n2cc(-c3cc(F)cc(Cl)c3)nn2)[C@@H](O)[C@@H](CO)O[C@H]1C(=O)N(c1cc(F)cc(Br)c1)[C@H]1CCCC[C@@H]1O` [Example 136, (2R,3R,4S,5R,6R)-N-(3-bromo-5-fluorophenyl)-4-(4-(3-chloro-5-fluorophenyl)-1H-1,2,3-triazol-1-yl)-5-hydroxy-N-((1S,2S)-2-hydroxycyclohexyl)-6-(hydroxymethyl)-3-methoxytetrahydro-2H-pyran-2-carboxamide], the pIC50 in assay [1] was 6.49; in assay [2], 7.60.

As to `CO[C@@H]1[C@@H](n2cc(-c3cc(F)cc(Cl)c3)nn2)[C@@H](O)[C@@H](CO)O[C@H]1C(=O)N(c1cc(Br)cc(C#N)c1)[C@H]1CCCC[C@@H]1O` [Example 137, (2R,3R,4S,5R,6R)-N-(3-bromo-5-cyanophenyl)-4-(4-(3-chloro-5-fluorophenyl)-1H-1,2,3-triazol-1-yl)-5-hydroxy-N-((1S,2S)-2-hydroxycyclohexyl)-6-(hydroxymethyl)-3-methoxytetrahydro-2H-pyran-2-carboxamide], the pIC50 in assay [1] is 6.50; in assay [2], 7.62.

With `CO[C@@H]1[C@@H](n2cc(-c3cc(F)cc(Cl)c3)nn2)[C@@H](O)[C@@H](CO)O[C@H]1C(=O)N(c1cccc(Br)c1)[C@H]1CCCC[C@@H]1O` [Example 138, (2R,3R,4S,5R,6R)-N-(3-bromophenyl)-4-(4-(3-chloro-5-fluorophenyl)-1H-1,2,3-triazol-1-yl)-5-hydroxy-N-((1S,2S)-2-hydroxycyclohexyl)-6-(hydroxymethyl)-3-methoxytetrahydro-2H-pyran-2-carboxamide], the pIC50 in assay [1] was 6.03; in assay [2] it was 7.37.

As to `CO[C@@H]1[C@@H](n2cc(-c3cc(F)cc(Cl)c3)nn2)[C@@H](O)[C@@H](CO)O[C@H]1C(=O)N(c1cc(Cl)cc(Cl)c1)[C@H]1CCCC[C@@H]1O` [Example 139, (2R,3R,4S,5R,6R)-4-(4-(3-chloro-5-fluorophenyl)-1H-1,2,3-triazol-1-yl)-N-(3,5-dichlorophenyl)-5-hydroxy-N-((1S,2S)-2-hydroxycyclohexyl)-6-(hydroxymethyl)-3-methoxytetrahydro-2H-pyran-2-carboxamide], the negative logarithm of the IC50 (pIC50) is 6.07 in assay [1] and 7.57 in assay [2].

For the molecule `CO[C@@H]1[C@@H](n2cc(-c3cc(F)cc(Cl)c3)nn2)[C@@H](O)[C@@H](CO)O[C@H]1C(=O)N(c1cc(C)cc(C#N)c1)[C@H]1CCCC[C@@H]1O` [Example 140, (2R,3R,4S,5R,6R)-4-(4-(3-chloro-5-fluorophenyl)-1H-1,2,3-triazol-1-yl)-N-(3-cyano-5-methylphenyl)-5-hydroxy-N-((1S,2S)-2-hydroxycyclohexyl)-6-(hydroxymethyl)-3-methoxytetrahydro-2H-pyran-2-carboxamide], the negative logarithm of the IC50 (pIC50) in assay [1] is 6.17; in assay [2], 7.48.
